System: Phospholipidosis
Assay: Literature-mined public compounds from Kruhlak et al phospholipidosis modelling dataset

Structure (SMILES) | Phospholipidosis
CC[C@H]1OC(=O)[C@H](C)[C@@H](O[C@H]2C[C@@](C)(OC)[C@@H](O)[C@H](C)O2)[C@H](C)[C@@H](O[C@@H]2O[C@H](C)C[C@H](N(C)C)[C@H]2O)[C@](C)(O)C[C@@H](C)CN(C)[C@H](C)[C@@H](O)[C@]1(C)O [AZITHROMYCIN] | Positive: weak inducer based on presence of foamy macrophages and cytoplasmic vacuolations
CCC1(CC)C(=O)NC(=O)NC1=O [BARBITAL] | Negative: based on the absence of positive reported data from WMDD
NC[C@H]1O[C@H](O[C@H]2[C@H](O)[C@@H](O[C@H]3O[C@H](CO)[C@@H](O)[C@H](N)[C@H]3O)[C@H](N)C[C@@H]2N)[C@H](N)[C@@H](O)[C@@H]1O [BEKANAMYCIN] | Negative: based on the absence of positive reported data from WMDD
NS(=O)(=O)c1cc2c(cc1C(F)(F)F)NC(Cc1ccccc1)NS2(=O)=O (stereo unspecified) [BENDROFLUMETHIAZIDE] | Negative: based on the absence of positive reported data from WMDD
CC(=O)Nc1ccc(OC(=O)c2ccccc2OC(C)=O)cc1 [BENORILATE] | Negative: based on the absence of positive reported data from WMDD
NC(=O)c1ccccc1 [BENZAMIDE] | Positive: weak inducer based on presence of foamy macrophages and cytoplasmic vacuolations
CCN(CC)C(=O)C1CN2CCc3cc(OC)c(OC)cc3C2CC1OC(C)=O (stereo unspecified) [BENZQUINAMIDE] | Negative: based on the absence of positive reported data from WMDD
CN1[C@@H]2CC[C@H]1C[C@@H](OC(c1ccccc1)c1ccccc1)C2 [BENZTROPINE] | Negative: based on the absence of positive reported data from WMDD
OCc1ccccc1 [BENZYL ALCOHOL] | Negative: based on the absence of positive reported data from WMDD
C[N+](C)(CCOc1ccccc1)Cc1ccccc1.O=C([O-])c1cc2ccccc2cc1O [BEPHENIUM HYDROXYNAPHTHOATE] | Negative: based on the absence of positive reported data from WMDD
CC(C)COCC(CN(Cc1ccccc1)c1ccccc1)N1CCCC1 (stereo unspecified) [BEPRIDIL] | Negative: based on the absence of positive reported data from WMDD
CC1=C(/C=C/C(C)=C/C=C/C(C)=C/C=C/C=C(C)/C=C/C=C(C)/C=C/C2=C(C)CCCC2(C)C)C(C)(C)CCC1 [BETA CAROTENE] | Negative: based on the absence of positive reported data from WMDD
C[N+](C)(C)CC(=O)O [BETAINE] | Negative: based on the absence of positive reported data from WMDD
CC(=O)OCC(=O)[C@@]1(O)[C@@H](C)C[C@H]2[C@@H]3CCC4=CC(=O)C=C[C@]4(C)[C@@]3(F)[C@@H](O)C[C@@]21C [BETAMETHASONE ACETATE] | Negative: based on the absence of positive reported data from WMDD
CC(=O)OCC(=O)[C@@]1(OC(=O)C(C)C)[C@@H](C)C[C@H]2[C@@H]3CCC4=CC(=O)C=C[C@]4(C)[C@@]3(F)[C@@H](O)C[C@@]21C [BETAMETHASONE ACIBUTATE] | Negative: based on the absence of positive reported data from WMDD
CC(C)NCC(O)COc1ccc(CCOCC2CC2)cc1 (stereo unspecified) [BETAXOLOL] | Negative: based on the absence of positive reported data from WMDD
C/N=C(\NC)NCc1ccccc1 [BETHANIDINE] | Negative: based on the absence of positive reported data from WMDD
C=CC1=C(C)/C(=C/c2[nH]c(Cc3[nH]c(/C=C4\NC(=O)C(C)=C4C=C)c(C)c3CCC(=O)O)c(CCC(=O)O)c2C)NC1=O [BILIRUBIN] | Positive: strong inducer confirmed by electron microscopy
CC(=O)Oc1ccc(C(c2ccc(OC(C)=O)cc2)c2ccccn2)cc1 [BISACODYL] | Negative: based on the absence of positive reported data from WMDD
FC(F)(F)c1ccc(-c2ccc(OCCN3CCCC3)cc2)cc1 [BOXIDINE] | Positive: strong inducer confirmed by electron microscopy
CC[N+](C)(C)Cc1ccccc1Br.Cc1ccc(S(=O)(=O)[O-])cc1 [BRETYLIUM TOSYLATE] | Negative: based on the absence of positive reported data from WMDD

Structure (SMILES) | Phospholipidosis
CN(Cc1cc(Br)cc(Br)c1N)C1CCCCC1 [BROMHEXINE] | Positive: weak inducer based on presence of foamy macrophages and cytoplasmic vacuolations
O=S(=O)(O)c1ccc(/N=N/c2cc(CO)c(O)c(/N=N/c3ccc(S(=O)(=O)O)c4ccccc34)c2O)c2ccccc12 [BROWN HT] | Negative: based on the absence of positive reported data from WMDD
CC(C)(C)c1ccc(CN2CCN(C(c3ccccc3)c3ccc(Cl)cc3)CC2)cc1 (stereo unspecified) [BUCLIZINE] | Negative: based on the absence of positive reported data from WMDD
O=C(O)CCC(=O)c1ccc(C2CCCCC2)c(Cl)c1 [BUCLOXIC ACID] | Negative: based on the absence of positive reported data from WMDD
CC(C)(C)NCC(O)COc1ccccc1C#N (stereo unspecified) [BUNITROLOL] | Negative: based on the absence of positive reported data from WMDD
Cc1ccc(Cl)c(OCC(O)CNC(C)(C)C)c1 (stereo unspecified) [BUPRANOLOL] | Negative: based on the absence of positive reported data from WMDD
O=C1CC2(CCCC2)CC(=O)N1CCCCN1CCN(c2ncccn2)CC1 [BUSPIRONE] | Negative: confirmed by electron microscopy
CCCCN(CCCC)CCNc1nc(-c2ccccc2)no1 [BUTALAMINE] | Negative: based on the absence of positive reported data from WMDD
C=CCC1(CC(C)C)C(=O)NC(=O)NC1=O [BUTALBITAL] | Negative: based on the absence of positive reported data from WMDD
CCCC(=O)c1ccc2c(c1)N(CCCN1CCN(C)CC1)c1ccccc1S2 [BUTAPERAZINE] | Negative: based on the absence of positive reported data from WMDD
Oc1ccc2c(c1)[C@@]13CCCC[C@@]1(O)[C@@H](C2)N(CC1CCC1)CC3 [BUTORPHANOL] | Negative: based on the absence of positive reported data from WMDD
Cn1c(=O)c2c(ncn2C)n(C)c1=O [CAFFEINE] | Negative: confirmed by electron microscopy
C=C1/C(=C\C=C2/CCC[C@]3(C)[C@@H]([C@H](C)CCCC(C)(C)O)CC[C@@H]23)C[C@@H](O)C[C@@H]1O [CALCITRIOL] | Negative: based on the absence of positive reported data from WMDD
NC(=O)N1c2ccccc2C=Cc2ccccc21 [CARBAMAZEPINE] | Negative: confirmed by electron microscopy
CN1CC(O)C2=C/C(=N/NC(N)=O)C(=O)C=C21 (stereo unspecified) [CARBAZOCHROME] | Negative: based on the absence of positive reported data from WMDD
CN(C)CCOC(c1ccc(Cl)cc1)c1ccccn1 (stereo unspecified) [CARBINOXAMINE] | Negative: based on the absence of positive reported data from WMDD
N[C@@H](CSCC(=O)O)C(=O)O [CARBOCYSTEINE] | Negative: based on the absence of positive reported data from WMDD
CCC(Br)(CC)C(=O)NC(N)=O [CARBROMAL] | Negative: based on the absence of positive reported data from WMDD
CCCCNC(=O)NS(=O)(=O)c1ccc(N)cc1 [CARBUTAMIDE] | Negative: based on the absence of positive reported data from WMDD
O=NN(CCCl)C(=O)NCCCl [CARMUSTINE] | Negative: based on the absence of positive reported data from WMDD

From ChEMBL document CHEMBL1697821, “Development of a phospholipidosis database and predictive quantitative structure-activity relationship (QSAR) models” (Toxicol Mech Methods, 2008)
